Experiments:
[1] = Body weight of TgSOD1 mice; format: in vivo; conditions: TgSOD1-Cromolyn vs TgSOD1-Vehicle
Protocol: Beginning at P50, weight and neurological score (using the ALS TDI criteria) (Hatzipetros, T., et al. (2015). “A Quick Phenotypic Neurological Scoring System for Evaluating Disease Progression in the SOD1-G93A Mouse Model of ALS.” J Vis Exp(104); Leitner M., et. al. (2009). “Working with ALS mice: Guidelines for preclinical testing & colony management.” The Jackson Laboratory) were recorded for each mouse every 5 days until death or euthanasia. ALS TDI criteria are as follows: • Score of 0: Full extension of hind legs away from lateral midline when mouse is suspended by its tail, and mouse can hold this for two seconds, suspended two to three times. • Score of 1: Collapse or partial collapse of leg extension towards lateral midline (weakness) or trembling of hind legs during tail suspension. • Score of 2: Toes curl under at least twice during walking of 12 inches, or any part of foot is dragging along cage bottom/table. • Score of 3: Rigid paralysis or minimal joint movement, foot not being used for generating forward motion. • Score of 4: Mouse cannot right itself within 15 seconds after being placed on either side. *Mice were euthanized upon obtaining a score of 4. […]

SOD1^G93A mouse model [2] = assay: Age at paresis onset; format: in vivo, mice
Protocol: Beginning at P50, weight and neurological score (using the ALS TDI criteria) (Hatzipetros, T., et al. (2015). “A Quick Phenotypic Neurological Scoring System for Evaluating Disease Progression in the SOD1-G93A Mouse Model of ALS.” J Vis Exp(104); Leitner M., et. al. (2009). “Working with ALS mice: Guidelines for preclinical testing & colony management.” The Jackson Laboratory) were recorded for each mouse every 5 days until death or euthanasia. ALS TDI criteria are as follows: • Score of 0: Full extension of hind legs away from lateral midline when mouse is suspended by its tail, and mouse can hold this for two seconds, suspended two to three times. • Score of 1: Collapse or partial collapse of leg extension towards lateral midline (weakness) or trembling of hind legs during tail suspension. • Score of 2: Toes curl under at least twice during walking of 12 inches, or any part of foot is dragging along cage bottom/table. • Score of 3: Rigid paralysis or minimal joint movement, foot not being used for generating forward motion. • Score of 4: Mouse cannot right itself within 15 seconds after being placed on either side. *Mice were euthanized upon obtaining a score of 4.
(§1) 149 male and female age- and litter-matched transgenic (Tg) SOD1^G93A and wild-type (Wt) SOD1^G93A mice were used with the following breakdown: Females (19 WtSOD1-Vehicle, 17 WtSOD1-Cromolyn, 19 TgSOD1-Vehicle, and 17 TgSOD1-Cromolyn) and Males (18 WtSOD1-Vehicle, 21 WtSOD1-Cromolyn, 21 TgSOD1-Vehicle, 17 TgSOD1-Cromolyn).

SOD1^G93A mouse model [3] = assay: Survival; format: in vivo, mice; conditions: Mantel-Cox test
Protocol: 149 mice were used in this study. All animal care, husbandry and experimentation were performed according to the guidelines set by the Massachusetts General Hospital Subcommittee on Research Animal Care. These experiments were approved by the Massachusetts General Hospital Institutional Animal Care and Use Committee (2014N000018). All mice were given access to food and water ad libitum. Mice were assessed regularly for motor impairment and euthanized upon onset of major paralysis (neurological scoring=4, see Neurological Score below) to minimize suffering as described previously. […] The endpoint used in this study was based on previously reported criteria by ALS TDI, the loss of self-righting ability within 15 seconds (neurological score=4) or the inability to move to reach food on the cage floor. Mice that reached the humane endpoint were euthanized within 3 hours.
as §1

[4] = test system: lumbar spinal cord motor neurons; assay: Motor neuron quantification (H&E); format: in vivo, mice; conditions: TgSOD1-Cromolyn vs TgSOD1-Vehicle; p=0.0033
Protocol: Longitudinal sections (10 μm) of the lumbar spinal cord were cut from fresh frozen tissue. Hematoxylin and eosin (H&E) staining was performed on the tissue sections as previously described. Within the region containing the ventral horn, all motor neurons are counted for three individual sections per animal (each separated by […]) to cover the areas of highest motor neuron density within the ventral horn. All counting was performed by an individual blinded to the genotypes. Images were acquired using a Zeiss microscope 20× objective (0.8 NA) and processed with Metamorph image analysis software (Molecular Devices).
as §1

MCP-1 = assay: CCL2/MCP-1 ELISA assay; format: in vivo, mice
Protocol: Spinal cord tissue was homogenized, and supernatants were derived as described in the section related to the Meso Scale Discovery cytokine assay. MCP-1 levels were measured in the supernatants generated from spinal cord tissue or in the plasma using the 96-well Mouse CCL2/JE/MCP-1 Quantikine ELISA Kit (R&D systems, #MJE00B), following the manufacturer's instructions. Briefly, samples and diluted standards were added to the plate coated with MCP-1-specific antibody. Samples were incubated in the plate for 2 hours on a shaker at room temperature, followed by washes with the wash buffer provided in the kit. Subsequently, horseradish peroxidase conjugated antibody against MCP-1 was added to each well and incubated for 2 hours at room temperature on the shaker. The plate was washed with the wash buffer and incubated with Substrate solution for 30 minutes at room temperature. Next, Stop solution was added and the signal was read on a Microplate reader (Synergy 2, Biotek Instruments). The optical density was measured at […] and was corrected with the optical density measured at 540 nm. MCP-1 levels in the samples were calculated based on the MCP-1 standard curve. Protein concentrations in the supernatants were measured by the Pierce BCA protein assay kit (Thermo Scientific). Values in the graphs represent levels of MCP-1 normalized to the corresponding protein concentrations. […]

GPR35 = GPR35 immunofluorescence, lumbar spinal cord; format: in vivo, mice; conditions: TgSOD1-Cromolyn vs TgSOD1-Vehicle
Protocol: Frozen mouse lumbar spinal cord was sectioned at […] and stained using previously described methods. Tissue sections were fixed with 4% paraformaldehyde and blocked in a mixture of phosphate-buffered saline (PBS), 5% BSA, and normal goat serum. Co-staining was done using antibodies specific for GPR35 (Novus Biologicals, Littleton, Colo.; NBP2-24640) and NeuN (Millipore Sigma, Temecula, Calif.; MAB377 overnight at 4° C. Following three washes with PBS, sections were incubated with Cy3-conjugated goat anti-mouse and FITC-conjugated goat anti-rabbit antibodies (Jackson ImmunoResearch, West Grove, Pa.). Ten 20× fields were imaged from each section and analyzed using open source software from the National Institutes of Health (ImageJ).
as §1

[5] = target: G-protein-coupled receptor 35 (GPR35) (Homo sapiens, UniProt Q9HC97); conditions: cited from earlier work
beta-amyloid peptides = beta-amyloid peptides (Homo sapiens, UniProt P05067); conditions: cited from earlier work
alpha-synuclein peptides = alpha-synuclein peptides (Homo sapiens, UniProt P37840); conditions: cited from earlier work

Sequence of G-protein-coupled receptor 35 (GPR35) (Q9HC97 whole entry, species assumed): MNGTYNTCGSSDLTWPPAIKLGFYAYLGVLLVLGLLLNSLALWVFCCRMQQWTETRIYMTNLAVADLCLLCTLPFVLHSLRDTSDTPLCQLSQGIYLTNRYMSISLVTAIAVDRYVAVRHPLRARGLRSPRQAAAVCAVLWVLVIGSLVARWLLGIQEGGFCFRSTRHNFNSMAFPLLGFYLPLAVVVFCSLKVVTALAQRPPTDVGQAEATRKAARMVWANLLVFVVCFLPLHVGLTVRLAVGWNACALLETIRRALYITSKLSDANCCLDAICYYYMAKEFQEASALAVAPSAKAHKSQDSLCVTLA
Sequence of beta-amyloid peptides (P05067 672-713 limits assumed): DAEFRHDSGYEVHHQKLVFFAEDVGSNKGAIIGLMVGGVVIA

## O=C(O)c1cc(=O)c2c(OCC(O)COc3cccc4oc(C(=O)O)cc(=O)c34)cccc2o1 [cromolyn, cromolyn sodium]
[1]; 6.3 mg/kg i.p. once daily 5 days per week from P60, overall
  body weight: did not impact body weight
[1]; 6.3 mg/kg i.p., all mice, at P130
  body weight: significant improvement in body weight
SOD1^G93A mouse model [2]; TgSOD1-Cromolyn group, all mice, 6.3 mg/kg i.p., vehicle group 99 days
  median age of onset (age at paresis onset): 107 days
SOD1^G93A mouse model [2]; all TgSOD1 mice, Mantel-Cox test, p<0.0001
  onset of motor symptoms as measured by age at paresis onset: significant effect of cromolyn treatment on the onset of motor symptoms
SOD1^G93A mouse model [2]; female mice, Mantel-Cox test, p=0.0009
  onset of motor symptoms: significant delay in the onset of motor symptoms
SOD1^G93A mouse model [2]; male mice, Mantel-Cox test, p=0.0193
  onset of motor symptoms: significant delay in the onset of motor symptoms
SOD1^G93A mouse model [3]; all treated mice, p=0.1096
  survival: did not have a significant effect on survival
SOD1^G93A mouse model [3]; female mice, p=0.01
  survival: significant effect of treatment on female survival
SOD1^G93A mouse model [3]; male mice alone, p<0.8831
  survival: did not have a significant effect on survival
[4]
  motor neuron survival (lumbar spinal cord motor neuron counts): significantly increased
MCP-1; TgSOD1-Cromolyn vs TgSOD1-Vehicle
  MCP-1 levels in the spinal cord: no effect of cromolyn treatment on MCP-1 levels
MCP-1; any of the groups
  MCP-1 levels in the plasma: not altered
GPR35; p=0.0411
  neuronal GPR35 levels (co-localized with NeuN): significant increase in neuronal GPR35 levels
GPR35; p=0.0449
  GPR35 levels (immunofluorescence intensity): significant increase in GPR35 levels
[5]
  agonism of GPR35: potent agonist
beta-amyloid peptides
  binding to beta-amyloid peptides and polymerization: inhibiting their polymerization to higher order aggregates
alpha-synuclein peptides
  binding to alpha-synuclein peptides and polymerization: inhibiting their polymerization to higher order aggregates
